Legend:
PHBPU [1] = test: Pre-emergence herbicidal action against PHBPU; format: in vivo, Pharbitis purpurea; conditions: Ipomoea purpurea, 504 h, dosage 80 g/ha
Method in brief: (§1)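 Visual rating at 3 weeks vs untreated pots; 0–100% scale, 100% = plants died. Treatment: aqueous WP/EC spray onto covering soil, 600–800 l/ha, 0.2% wetter, seeds in sandy loam.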

LOLRI = test: Pre-emergence herbicidal action against LOLRI; format: in vivo, Lolium rigidum; conditions: Lolium rigidum, 504 h, 80 g/ha
Method in brief: as §1

AMARE [2] = test: Post-emergence herbicidal action against AMARE; format: in vivo, Amaranthus retroflexus; conditions: 20 g/ha, visual assessment about 3 weeks after treatment, 100% = plants have died, 0% = like control plants
Method in brief: (§2)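 Weeds in sandy loam soil received a post-emergence spray at the one-leaf stage. Compounds were applied as WP or EC in water, 600 to 800 l/ha, with 0.2% wetting agent. Activity in % was judged visually after roughly 3 weeks against untreated plants.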

DIGSA [3] = test: Pre-emergence herbicidal action against DIGSA; format: in vivo, Digitaria sanguinalis
Method in brief: as §1

ALOMY [4] = test: Pre-emergence herbicidal action against ALOMY; format: in vivo, Alopecurus myosuroides; conditions: pre-emergence
Method in brief: as §1

ALOMY [5] = test: Post-emergence herbicidal action against ALOMY; format: in vivo, Alopecurus myosuroides; conditions: Alopecurus myosuroides, 504 h, dosage 20 g/ha, visual assessment about 3 weeks after treatment vs untreated controls
Method in brief: as §2

POLCO [6] = test: Post-emergence herbicidal action against POLCO; format: in vivo, Polygonum convolvulus; conditions: dosage 20 g/ha
Method in brief: as §2

SETVI [7] = test: Pre-emergence herbicidal action against SETVI; format: in vivo, Setaria viridis; conditions: dosage 80 g/ha
Method in brief: as §1

AMARE [8] = test: Pre-emergence herbicidal action against AMARE; format: in vivo, Amaranthus retroflexus
Method in brief: as §1

POLCO [9] = test: Pre-emergence herbicidal action against POLCO; format: in vivo, Polygonum convolvulus; conditions: dosage 80 g/ha
Method in brief: as §1

STEME [10] = test: Pre-emergence herbicidal action against STEME; format: in vivo, Stellaria media
Method in brief: as §1

VIOTR [11] = test: Pre-emergence herbicidal action against VIOTR; format: in vivo, Viola tricolor
Method in brief: as §1

VIOTR [12] = test: Post-emergence herbicidal action against VIOTR; format: in vivo, Viola tricolor
Method in brief: as §2

ECHCG [13] = test: Post-emergence herbicidal action against ECHCG; format: in vivo, Echinochloa crus-galli
Method in brief: as §2

ECHCG [14] = test: Pre-emergence herbicidal action against ECHCG; format: in vivo, Echinochloa crus-galli; conditions: 80 g/ha
Method in brief: as §1

ABUTH [15] = test: Post-emergence herbicidal action against ABUTH; format: in vivo, Abutilon theophrasti; conditions: visual assessment about 3 weeks after treatment vs untreated controls
Method in brief: as §2

SETVI [16] = test: Post-emergence herbicidal action against SETVI; format: in vivo, Setaria viridis
Method in brief: as §2

MATIN [17] = test: Pre-emergence herbicidal action against MATIN; format: in vivo, Matricaria inodora
Method in brief: as §1

MATIN [18] = test: Post-emergence herbicidal action against MATIN; format: in vivo, Matricaria inodora; conditions: Tripleurospermum inodorum, 504 h
Method in brief: as §2

AVEFA = test: Pre-emergence herbicidal action against AVEFA; format: in vivo, Avena fatua; conditions: pre-emergence
Method in brief: as §1

DIGSA [19] = test: Post-emergence herbicidal action against DIGSA; format: in vivo, Digitaria sanguinalis
Method in brief: as §2

HORMU = test: Pre-emergence herbicidal action against HORMU; format: in vivo, Hordeum murinum; conditions: 80 g/ha, pre-emergence
Method in brief: as §1

ABUTH [20] = test: Pre-emergence herbicidal action against ABUTH; format: in vivo, Abutilon theophrasti
Method in brief: as §1

STEME [21] = test: Post-emergence herbicidal action against STEME; format: in vivo, Stellaria media
Method in brief: as §2

VERPE = test: Pre-emergence herbicidal action against VERPE; format: in vivo, Veronica persica; conditions: Veronica persica, 504 h, dosage 80 g/ha
Method in brief: as §1

PHBPU [22] = test: Post-emergence herbicidal action against PHBPU; format: in vivo, Pharbitis purpurea; conditions: dosage 20 g/ha
Method in brief: as §2

[23] = 80 g/ha, scored visually after 3 weeks vs untreated controls (100% = plants have died, 0% = like control plants)

What does the source list for `CCn1nnnc1NC(=O)c1ccc(C(F)F)c(C(=O)NC2CC2)c1Cl` [Example 2-149]?
pest or weed control at 80 g/ha (PHBPU [1]): 80%; pest or weed control at 80 g/ha (LOLRI): 90%; pest or weed control at 20 g/ha (AMARE [2]; Amaranthus retroflexus, 504 h): 100%; pest or weed control at 20 g/ha (DIGSA [3]; Digitaria sanguinalis, 504 h, dosage 20 g/ha): 90%; pest or weed control at 80 g/ha (DIGSA [3]; Digitaria sanguinalis, 504 h, dosage 80 g/ha): 100%; pest or weed control at 80 g/ha (ALOMY [4]; Alopecurus myosuroides, 504 h, 80 g/ha, scored visually after 3 weeks vs untreated controls (100% = plants have died, 0% = like control plants)): 90%; pest or weed control at 20 g/ha (ALOMY [4]; Alopecurus myosuroides, 504 h, 20 g/ha, scored visually after 3 weeks, 100% = plants have died, 0% = like control plants): 80%; pest or weed control at 20 g/ha (ALOMY [5]): 80%; pest or weed control at 20 g/ha (POLCO [6]; Fallopia convolvulus, 504 h): 80%; pest or weed control at 80 g/ha (SETVI [7]; Setaria viridis, 504 h): 100%; pest or weed control at 20 g/ha (AMARE [8]; Amaranthus retroflexus, 504 h, 20 g/ha, scored visually after 3 weeks vs untreated controls, 100% = plants have died, 0% = like control plants): 100%; pest or weed control at 80 g/ha (AMARE [8]; Amaranthus retroflexus, 504 h, 80 g/ha, scored visually after 3 weeks vs untreated controls, 100% = plants have died, 0% = like control plants): 100%; pest or weed control at 80 g/ha (POLCO [9]; Fallopia convolvulus, 504 h): 100%; pest or weed control at 20 g/ha (STEME [10]; Stellaria media, 504 h, dosage 20 g/ha): 100%; pest or weed control at 80 g/ha (STEME [10]; Stellaria media, 504 h, dosage 80 g/ha): 100%; pest or weed control at 20 g/ha (VIOTR [11]; Viola tricolor, 504 h, dosage 20 g/ha): 100%; pest or weed control at 80 g/ha (VIOTR [11]; Viola tricolor, 504 h, dosage 80 g/ha): 100%; pest or weed control at 5 g/ha (VIOTR [12]; Viola tricolor, 504 h, 5 g/ha): 100%; pest or weed control at 20 g/ha (VIOTR [12]; Viola tricolor, 504 h, 20 g/ha): 100%; pest or weed control at 20 g/ha (ECHCG [13]; Echinochloa crus-galli, 504 h, dosage 20 g/ha): 80%; pest or weed control at 80 g/ha (ECHCG [14]; Echinochloa crus-galli, 504 h): 90%; pest or weed control at 5 g/ha (ABUTH [15]; Abutilon theophrasti, 504 h, dosage 5 g/ha): 80%; pest or weed control at 20 g/ha (ABUTH [15]; Abutilon theophrasti, 504 h, dosage 20 g/ha): 100%; pest or weed control at 5 g/ha (SETVI [16]; Setaria viridis, 504 h, dosage 5 g/ha): 90%; pest or weed control at 20 g/ha (SETVI [16]; Setaria viridis, 504 h, dosage 20 g/ha): 100%; pest or weed control at 20 g/ha (MATIN [17]; Tripleurospermum inodorum, 504 h, dosage 20 g/ha): 90%; pest or weed control at 80 g/ha (MATIN [17]; Tripleurospermum inodorum, 504 h, dosage 80 g/ha): 100%; pest or weed control at 5 g/ha (MATIN [18]; dosage 5 g/ha): 90%; pest or weed control at 20 g/ha (MATIN [18]; dosage 20 g/ha): 100%; pest or weed control at 80 g/ha (AVEFA; Avena fatua, 504 h, 80 g/ha): 100%; pest or weed control at 20 g/ha (AVEFA; Avena fatua, 504 h, 20 g/ha, scored visually after 3 weeks, 100% = plants have died, 0% = like control plants): 80%; pest or weed control at 5 g/ha (DIGSA [19]; Digitaria sanguinalis, 504 h, 5 g/ha): 100%; pest or weed control at 20 g/ha (DIGSA [19]; Digitaria sanguinalis, 504 h, 20 g/ha): 100%; pest or weed control at 80 g/ha (HORMU; Hordeum murinum, 504 h): 90%; pest or weed control at 80 g/ha (ABUTH [20]; Abutilon theophrasti, 504 h, 80 g/ha, scored visually after 3 weeks vs untreated controls (100% = plants have died, 0% = like control plants)): 100%; pest or weed control at 20 g/ha (ABUTH [20]; Abutilon theophrasti, 504 h, dosage 20 g/ha, scored visually after 3 weeks vs untreated controls, 100% = plants have died, 0% = like control plants, read-out: Pre-emergence action against ABUTH (herbicidal activity in percent)): 100%; pest or weed control at 20 g/ha (STEME [21]; Stellaria media, 504 h, 20 g/ha): 90%; pest or weed control at 5 g/ha (STEME [21]; Stellaria media, 504 h, dosage 5 g/ha): 90%; pest or weed control at 80 g/ha (VERPE): 80%; pest or weed control at 20 g/ha (PHBPU [22]; Ipomoea purpurea, 504 h): 90%

For `CCNC(=O)c1c(C(F)(F)F)ccc(C(=O)Nc2nnc(C)o2)c1C` [Example 6-26], which “Post-emergence action at 20 g/ha against AMARE in %” value (AMARE [2]) is on record?
The value was 100%.

What about the “Pre-emergence action against DIGSA in %” value (DIGSA [3]; dosage 20 g/ha) of the same compound?
The value was 100%.

And the “Pre-emergence action against DIGSA in %” value (DIGSA [3]; dosage 80 g/ha)?
Its value is 100%.

And the “Pre-emergence action against ALOMY (herbicidal activity)” value (ALOMY [4]; [23])?
The value was 80%.

What about the “Post-emergence action against POLCO in %” value (POLCO [6]) of the same compound?
The value was 80%.

What about the “Pre-emergence action against SETVI in %” value (SETVI [7]) of the same compound?
The value was 100%.

What about the “Pre-emergence action against AMARE in %” value (AMARE [8]; 20 g/ha, scored visually after 3 weeks vs untreated controls, 100% = plants have died, 0% = like control plants) of the same compound?
The value was 100%.

And the “Pre-emergence action against AMARE in %” value (AMARE [8]; [23])?
The value was 100%.

And the “Pre-emergence action against POLCO in %” value (POLCO [9])?
The value was 100%.

What about the “Pre-emergence action against STEME in %” value (STEME [10]; dosage 20 g/ha) of the same compound?
Its value is 80%.

What about the “Pre-emergence action against STEME in %” value (STEME [10]; dosage 80 g/ha) of the same compound?
The value was 100%.

What about the “Pre-emergence action against VIOTR in %” value (VIOTR [11]; dosage 80 g/ha) of the same compound?
Its value is 100%.

What about the “Post-emergence action against VIOTR in %” value (VIOTR [12]; 20 g/ha) of the same compound?
Its value is 100%.

What about the “Post-emergence action against ECHCG in %” value (ECHCG [13]; dosage 5 g/ha) of the same compound?
The value was 80%.

What about the “Post-emergence action against ECHCG in %” value (ECHCG [13]; dosage 20 g/ha) of the same compound?
The value was 90%.

What about the “Pre-emergence action against ECHCG in %” value (ECHCG [14]) of the same compound?
The value was 100%.

And the “Post-emergence action against ABUTH in %” value (ABUTH [15]; dosage 5 g/ha)?
The value was 90%.

What about the “Post-emergence action against ABUTH in %” value (ABUTH [15]; dosage 20 g/ha) of the same compound?
Its value is 90%.

And the “Post-emergence action against SETVI in %” value (SETVI [16]; dosage 20 g/ha)?
The value was 80%.

What about the “Pre-emergence action against MATIN in %” value (MATIN [17]; dosage 20 g/ha) of the same compound?
Its value is 80%.

And the “Pre-emergence action against MATIN in %” value (MATIN [17]; dosage 80 g/ha)?
Its value is 90%.

And the “Pre-emergence action against AVEFA in %” value (AVEFA; 80 g/ha)?
The value was 80%.

And the “Post-emergence action against DIGSA in %” value (DIGSA [19]; 5 g/ha)?
Its value is 90%.

What about the “Post-emergence action against DIGSA” value (DIGSA [19]; 20 g/ha) of the same compound?
The value was 90%.

And the “Pre-emergence action against HORMU in %” value (HORMU)?
The value was 80%.

What about the “Pre-emergence action against ABUTH (herbicidal activity)” value (ABUTH [20]; [23]) of the same compound?
Its value is 100%.

And the “Pre-emergence action against ABUTH (herbicidal activity in percent)” value (ABUTH [20]; dosage 20 g/ha, scored visually after 3 weeks vs untreated controls, 100% = plants have died, 0% = like control plants)?
The value was 100%.

What about the “Post-emergence action against STEME in %” value (STEME [21]; 20 g/ha) of the same compound?
Its value is 80%.

What about the “Post-emergence action against PHBPU in %” value (PHBPU [22]) of the same compound?
Its value is 80%.

Source: patent US12655116B2, “Substituted isophthalic acid diamides” (Bayer Aktiengesellschaft, priority 2020, dated 2026)
